# Compound: Cc1ccc(NC(=O)c2ccc(CN3CCN(C)CC3)cc2)cc1Nc1nc(-c2cccnc2)cs1 [Masitinib] + Cc1nc(Nc2ncc(C(=O)Nc3c(C)cccc3Cl)s2)cc(N2CCN(CCO)CC2)n1 [Dasatinib] (partner 0.075 µM)
# Assay: relative viability (nuclei count vs DMSO), 5 days (fraction); higher = more cells survive
# Details: first compound 0.01 µM
# In short: (§1)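 Relative viability equals treated-well nuclei counts divided by vehicle-well nuclei counts. Counts came from 4× images of lung cancer cell lines grown in 1536-well plates for 5 days after pin-tool dosing on the day after seeding. Dosing used one drug alone or a fixed anchor-drug dose plus five library-drug doses (not always all listed) in √10 steps, and values are medians of duplicate plates.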
row,Cell Line,relative viability
1,EMC-BAC-2,0.35
2,NCI-H2087,0.922
3,NCI-H647,0.181
4,LK-2,0.336
5,NCI-H2126,0.681
6,NCI-H2342,0.326
7,NCI-H1793,0.415
8,H3255,0.335
9,COR-L23,0.411
10,COR-L 105,0.37
11,LOU-NH91,0.557
12,ChaGo-K-1,0.577
13,NCI-H358,0.155
14,SW 900,0.613
15,NCI-H727,0.332
16,NCI-H1395,0.415
17,NCI-H1563,0.399
18,NCI-H1792,0.757
19,NCI-H2170,0.5
20,ABC-1,0.58
21,SK-MES-1,0.319

# Same assay, conditions: first compound 0.03162 µM
row,Cell Line,relative viability
1,NCI-H1623,0.446
2,NCI-H838,0.258
3,NCI-H1651,0.469
4,NCI-H1734,0.521
5,NCI-H2009,0.284
6,LU99A,0.619
7,PC-14,0.241
8,LCLC-103H,0.467
9,NCI-H596,0.566
10,NCI-H2228,0.461
11,EMC-BAC-2,0.33
12,NCI-H2087,0.927
13,HCC-366,0.654
14,NCI-H647,0.208
15,LK-2,0.243
16,NCI-H2126,0.537
17,NCI-H2342,0.334

row,Cell Line,relative viability
1,NCI-H1793,0.398
2,H3255,0.363
3,COR-L23,0.419
4,COR-L 105,0.338
5,LOU-NH91,0.511
6,ChaGo-K-1,0.575
7,NCI-H358,0.158
8,SW 900,0.473
9,NCI-H727,0.315
10,NCI-H1395,0.404
11,NCI-H1563,0.481
12,NCI-H1792,0.342
13,NCI-H1944,0.204
14,NCI-H2170,0.473
15,ABC-1,0.588
16,SK-MES-1,0.359

# Same assay, conditions: first compound 0.1 µM
row,Cell Line,relative viability
1,NCI-H522,0.823
2,NCI-H1623,0.551
3,NCI-H838,0.344
4,NCI-H1651,0.443
5,NCI-H1734,0.508
6,NCI-H2009,0.324
7,LU99A,0.557
8,PC-14,0.28
9,LCLC-103H,0.462
10,NCI-H596,0.675
11,NCI-H2228,0.729
12,EMC-BAC-2,0.397
13,NCI-H2087,1.01
14,NCI-H647,0.186
15,LK-2,0.289
16,NCI-H2126,0.653

row,Cell Line,relative viability
1,NCI-H2342,0.3
2,NCI-H1793,0.396
3,H3255,0.336
4,COR-L23,0.531
5,COR-L 105,0.305
6,LOU-NH91,0.54
7,ChaGo-K-1,0.54
8,NCI-H358,0.166
9,SW 900,0.706
10,NCI-H727,0.346
11,NCI-H1395,0.404
12,NCI-H1563,0.49
13,NCI-H1792,0.83
14,NCI-H2170,0.547
15,ABC-1,0.629
16,SK-MES-1,0.392

# Same assay, conditions: first compound 0.3162 µM
row,Cell Line,relative viability
1,NCI-H522,0.887
2,NCI-H1623,0.453
3,NCI-H838,0.266
4,NCI-H1651,0.383
5,NCI-H1734,0.518
6,NCI-H2009,0.283
7,LU99A,0.503
8,PC-14,0.181
9,LCLC-103H,0.437
10,NCI-H596,0.667
11,NCI-H2228,0.523
12,EMC-BAC-2,0.314
13,NCI-H2087,0.775
14,HCC-366,0.619
15,NCI-H647,0.171
16,LK-2,0.306
17,NCI-H2126,0.369

row,Cell Line,relative viability
1,NCI-H2342,0.301
2,NCI-H1793,0.356
3,H3255,0.349
4,COR-L23,0.437
5,COR-L 105,0.288
6,LOU-NH91,0.442
7,ChaGo-K-1,0.546
8,NCI-H358,0.161
9,SW 900,0.499
10,NCI-H727,0.383
11,NCI-H1395,0.395
12,NCI-H1563,0.481
13,NCI-H1792,0.718
14,NCI-H1944,0.215
15,NCI-H2170,0.56
16,ABC-1,0.428
17,SK-MES-1,0.286

# Same assay, conditions: first compound 1 µM
row,Cell Line,relative viability
1,NCI-H522,0.879
2,NCI-H1623,0.43
3,NCI-H838,0.229
4,NCI-H1651,0.419
5,NCI-H1734,0.416
6,NCI-H2009,0.244
7,LU99A,0.503
8,PC-14,0.217
9,LCLC-103H,0.445
10,NCI-H596,0.615
11,NCI-H2228,0.425
12,EMC-BAC-2,0.296
13,NCI-H2087,0.788
14,HCC-366,0.609
15,NCI-H647,0.155
16,LK-2,0.263
17,NCI-H2126,0.525

row,Cell Line,relative viability
1,NCI-H2342,0.34
2,NCI-H1793,0.462
3,H3255,0.339
4,COR-L23,0.543
5,COR-L 105,0.286
6,LOU-NH91,0.546
7,ChaGo-K-1,0.629
8,NCI-H358,0.133
9,SW 900,0.477
10,NCI-H727,0.35
11,NCI-H1395,0.426
12,NCI-H1563,0.415
13,NCI-H1792,1.32
14,NCI-H1944,0.213
15,NCI-H2170,0.519
16,ABC-1,0.521
17,SK-MES-1,0.335

# Compound: Cc1ccc(NC(=O)c2ccc(CN3CCN(C)CC3)cc2)cc1Nc1nc(-c2cccnc2)cs1 [Masitinib] + O=C(CCCCCCC(=O)Nc1ccccc1)NO [Vorinostat] (partner 1 µM)
# Assay: as above
# Details: first compound 0.01 µM
# In short: as §1
row,Cell Line,relative viability
1,NCI-H522,0.822
2,NCI-H838,0.7
3,NCI-H1651,0.577
4,NCI-H1734,0.751
5,NCI-H2009,0.664
6,LU99A,0.455
7,PC-14,0.716
8,NCI-H596,0.702
9,NCI-H2228,0.604
10,EMC-BAC-2,0.38
11,NCI-H2087,0.532
12,NCI-H647,0.503
13,LK-2,0.246
14,NCI-H2126,0.736
15,NCI-H2342,0.789
16,NCI-H1793,0.828

row,Cell Line,relative viability
1,H3255,0.9
2,COR-L23,0.532
3,COR-L 105,0.741
4,IA-LM,0.737
5,LOU-NH91,0.84
6,ChaGo-K-1,0.901
7,NCI-H358,0.72
8,HCC-44,0.914
9,SW 900,0.48
10,NCI-H1648,0.471
11,NCI-H727,1.13
12,NCI-H1395,0.765
13,NCI-H2170,0.781
14,ABC-1,1.05
15,SK-MES-1,0.876

# Same assay, conditions: first compound 0.03162 µM
row,Cell Line,relative viability
1,NCI-H522,0.904
2,NCI-H838,0.664
3,NCI-H1651,0.543
4,NCI-H1734,0.756
5,NCI-H2009,0.772
6,LU99A,0.433
7,PC-14,0.79
8,LCLC-103H,0.778
9,NCI-H596,0.546
10,NCI-H2228,0.59
11,NCI-H2087,0.828
12,HCC-366,0.335
13,NCI-H647,0.533
14,LK-2,0.265
15,NCI-H2126,0.764
16,NCI-H2342,0.671
17,NCI-H1793,0.66

row,Cell Line,relative viability
1,H3255,0.9
2,COR-L23,0.411
3,COR-L 105,1.09
4,IA-LM,0.747
5,LOU-NH91,0.795
6,ChaGo-K-1,0.711
7,NCI-H358,0.658
8,HCC-44,1.1
9,SW 900,0.502
10,NCI-H1648,0.401
11,NCI-H727,1.36
12,NCI-H1395,0.613
13,NCI-H1944,0.528
14,NCI-H2170,0.708
15,ABC-1,0.997
16,SK-MES-1,1.15

# Same assay, conditions: first compound 0.1 µM
row,Cell Line,relative viability
1,NCI-H522,1.07
2,NCI-H838,0.773
3,NCI-H1651,0.56
4,NCI-H1734,0.773
5,NCI-H2009,0.69
6,LU99A,0.492
7,PC-14,0.767
8,LCLC-103H,0.666
9,NCI-H596,0.545
10,NCI-H2228,0.693
11,EMC-BAC-2,0.441
12,NCI-H2087,0.672
13,HCC-366,0.344
14,NCI-H647,0.592
15,LK-2,0.393
16,NCI-H2126,0.8
17,NCI-H2342,0.829

row,Cell Line,relative viability
1,NCI-H1793,0.712
2,H3255,0.544
3,COR-L23,0.435
4,COR-L 105,0.971
5,IA-LM,1.06
6,LOU-NH91,0.884
7,ChaGo-K-1,0.853
8,NCI-H358,0.773
9,HCC-44,1.06
10,SW 900,0.375
11,NCI-H1648,0.454
12,NCI-H727,1.38
13,NCI-H1395,0.787
14,NCI-H2170,0.908
15,ABC-1,1.44
16,SK-MES-1,1.03

# Same assay, conditions: first compound 0.3162 µM
row,Cell Line,relative viability
1,NCI-H522,1.06
2,NCI-H838,0.639
3,NCI-H1651,0.529
4,NCI-H1734,0.779
5,NCI-H2009,0.654
6,LU99A,0.534
7,PC-14,0.691
8,LCLC-103H,0.778
9,NCI-H596,0.533
10,NCI-H2228,0.593
11,EMC-BAC-2,0.445
12,NCI-H2087,0.72
13,HCC-366,0.249
14,NCI-H647,0.693
15,LK-2,0.225
16,NCI-H2126,0.798
17,NCI-H2342,0.856

row,Cell Line,relative viability
1,NCI-H1793,0.379
2,H3255,0.584
3,COR-L23,0.46
4,COR-L 105,0.78
5,IA-LM,1.19
6,LOU-NH91,0.793
7,ChaGo-K-1,0.775
8,NCI-H358,0.641
9,HCC-44,1.06
10,SW 900,0.259
11,NCI-H727,0.988
12,NCI-H1395,0.774
13,NCI-H1944,0.547
14,NCI-H2170,0.869
15,ABC-1,1.15
16,SK-MES-1,0.984

# Same assay, conditions: first compound 1 µM
row,Cell Line,relative viability
1,NCI-H522,0.821
2,NCI-H838,0.703
3,NCI-H1651,0.55
4,NCI-H1734,0.794
5,NCI-H2009,0.602
6,LU99A,0.467
7,PC-14,0.865
8,LCLC-103H,0.761
9,NCI-H596,0.588
10,NCI-H2228,0.665
11,EMC-BAC-2,0.335
12,NCI-H2087,0.746
13,HCC-366,0.334
14,NCI-H647,0.619
15,LK-2,0.369
16,NCI-H2126,0.79
17,NCI-H2342,0.83

row,Cell Line,relative viability
1,NCI-H1793,0.687
2,H3255,0.761
3,COR-L23,0.373
4,COR-L 105,0.841
5,IA-LM,0.957
6,LOU-NH91,0.883
7,ChaGo-K-1,0.732
8,NCI-H358,0.616
9,HCC-44,1.03
10,SW 900,0.505
11,NCI-H1648,0.555
12,NCI-H727,1.09
13,NCI-H1395,0.637
14,NCI-H1944,0.5
15,NCI-H2170,0.823
16,ABC-1,0.877
17,SK-MES-1,1.07
